Measured values from US20240124409A1, “GUAIANOLIDE SESQUITERPENE LACTONE DERIVATIVES AND PHARMACEUTICAL USE THEREOF” (NANJING UNIVERSITY OF CHINESE MEDICINE, priority 2021, published 2024).

Key:
mouse sepsis model = assay: Mouse sepsis model (LPS), Q-PCR of inflammatory factors; type: in vivo, C57BL/6 mice; set-up: key: relative mRNA by 2^−ΔΔCt, normalized to Gapdh; conditions: 12 μmol/kg i.g.
From the text: The mice were randomly divided into 8 groups, one of which was randomly selected as the normal group, and the other 7 groups were the model group, the parent drug 1 (0.4 and 4 μmol/kg), the hydrochloride 22 (4 μmol/kg), the fumarate 23 (0.4 and 4 μmol/kg) and dexamethasone (Dex, 12 μmol/kg) groups, respectively, with 6 mice in each group. 5 days before model establishment, the parent drug 1 (0.4 and 4 μmol/kg), the hydrochloride 22 (4 μmol/kg), the fumarate 23 (0.4 and 4 μmol/kg) and Dex (12 μmol/kg) were administered intragastrically. The mice in the normal group and model group were administered intragastrically the same volume of the solvent 0.5% CMC-Na. LPS (10 mg/kg) was injected intraperitoneally 1 hour after administration on the last day to establish a mouse sepsis model.
At 6 h after intraperitoneal injection of LPS, the mice were sacrificed by cervical dislocation, and the abdominal cavity was opened. The lungs, livers and kidneys were taken out, and rinsed twice with pre-cooled PBS. The lung tissues, liver left lobe tissues and kidney tissues of the mice were cut, and fixed with 4% paraformaldehyde for 24-48 h. The remaining tissues were frozen at −70° Cfor subsequent use.
20 mg of kidney, lung and liver tissues were accurately weighed, rinsed with pre-cooled PBS solution, cut into small pieces by ophthalmic surgical scissors, and put into a glass homogenizer, into which was added 1 mL Trizol reagent for grinding to prepare tissue homogenate. Subsequently, the homogenate was transferred into a 1.5 mL EP tube without RNase and lysed on ice for 10 min. 200 μL chloroform was added, and the mixture was shaken violently, stood on ice for 3-5 min, and centrifuged at 12000 rpm and 4° C. for 15 min. The supernatant was aspirated carefully into a new 1.5 mL EP tube without RNase, into which was added the same volume of pre-cooled isopropanol, stood on an ice bath for 30 min, centrifuged at 12000 rpm and 4° C. for 10 min, and the supernatant was discarded. 75% ethanol-DEPC solution was added to wash the precipitate, and the total RNA was obtained by inversion and air drying on flat paper. Subsequently, 10 μL of DEPC treated water was added for dissolution. 1 μL of the total RNA solution was taken, and diluted to 100 times, the OD values of which at 260 nm and 280 nm were measured with a full wavelength microplate reader. If the ratio of OD260/OD280 is between 1.8 and 2.0, it is said that the extracted RNA has a high purity, i.e., it can be used in subsequent experiments.
Subsequent experiments were carried out with 20 μL of a reverse transcription reaction system according to the method described in the kit instructions:
Subsequent experiments were carried out with 20 μL of a reaction system according to the method described in the kit instructions:
The above reagents were added into a micro-reaction tube, sealed with a sealing membrane, and placed in a Q-PCR instrument. The parameters were set according to the following reaction conditions to carry out the amplification experiment. The reaction conditions were as follows:
The threshold cycle (Ct) value of each group was recorded. Calculating and analyzing were carried out by the 2^−ΔΔCt method (the expression level of the control gene Gapdh was set to 1 to correct the expression level of the target gene).

[1] = test system: mouse acute lung injury model; assay: Mouse acute lung injury model (LPS), ELISA; type: in vivo, C57BL/6 mice; conditions: title: serum (text b290: lung tissues), 12 μmol/kg
Procedure: In addition to the normal group injected intragastrically with PBS, other mice were injected intraperitoneally with LPS (7.5 mg/kg) to establish acute lung injury models. Three days before model establishment, the parent drug 1 (0.4 and 4 μmol/kg), the hydrochloride 22 (0.4 and 4 μmol/kg), the fumarate 23 (0.4 and 4 μmol/kg) and the positive drug Dex (12 μmol/kg) were administered intragastrically in advance, and LPS (7.5 mg/kg) was injected intraperitoneally half an hour after administration on the third day.
abdominal cavity was opened. The lungs were taken out, and rinsed twice with pre-cooled PBS. […] The remaining tissues were frozen at −70° C. for subsequent use.
20 mg of lung tissues were accurately weighed, rinsed with pre-cooled PBS solution, cut into small pieces by ophthalmic surgical scissors, and put into a glass homogenizer, into which was added 180 μL PBS (containing 1 mM PMSF). The mixture was homogenized at 60 HZ for 180 s, and centrifuged at 3000 rpm/min at 4° C. for 20 min. 1 μL supernatant was taken, the protein concentration of which was measured with Nanodrop and leveled, and could be used for subsequent experiments.

[2] = test system: acute gouty arthritis model rats induced by MSU; assay: Rat acute gouty arthritis model induced by MSU; type: in vivo, SD rats
Procedure: During the adaptive feeding period, 2% pentobarbital sodium was used to anesthetize the rats by intraperitoneal injection at a dose of 0.25 mL/100 g. The circumferences of the ankle joints of the parent left hind limbs of the rats were measured. After the adaptive feeding, 2% pentobarbital sodium was used for intraperitoneal injection anesthesia at a dose of 0.25 mL/100 g. After the anesthesia, 8 rats were randomly selected as the blank group, and normal saline was injected into the joint cavity of their left hind limbs. The other rats were injected with 200 μL sodium urate into the joint cavity of the left hind limbs. 6 h after the model establishment, the rats were anesthetized with pentobarbital sodium, and the joint circumference was measured with a 2 mm wide paper strip. According to the joint swelling ratio, the rats were divided into seven groups.
Administration was carried out once at 10.5 h and 22.5 h after the model establishment, respectively.
Joint swelling is one of the main characteristics of acute gouty arthritis model rats induced by MSU. Before the model establishment, and at 6 h, 12 h and 24 h after the model establishment, the circumferences of the ankle joints of the left hind limbs were measured respectively, and the joint swelling ratios were calculated. The circumferences at 0.5 mm below the ankle joints of the left hind feet of rats in each group were measured with a 2 mm wide paper strip and a ruler, the measurement was repeated twice, and the average value was taken to calculate the joint swelling ratio.
Joint swelling ratio=(joint circumference at test time point−initial joint circumference)/initial joint circumference

[3] = Table 12, title 'in lung' (text b281: liver)

## C[C@@H]1C[C@H]2[C@@H]3CCC4=CC(=O)C=C[C@]4(C)[C@@]3(F)[C@@H](O)C[C@]2(C)[C@@]1(O)C(=O)CO [Dex, dexamethasone, reference compound]
Mouse sepsis model; [3]
  Il1 mRNA expression: 7.54 ± 0.70
  Il6 mRNA expression: 4.27 ± 1.33
  Tnf mRNA expression: 7.04 ± 0.77
Mouse sepsis model; kidney
  Il1 mRNA expression: 6.05 ± 1.03
  Il6 mRNA expression: 5.76 ± 0.72
  Tnf mRNA expression: 6.62 ± 0.68
Mouse sepsis model; lung
  Il1 mRNA expression: 7.20 ± 0.36
  Il6 mRNA expression: 9.88 ± 0.80
  Tnf mRNA expression: 8.99 ± 0.76
[1]
  IL-1β: 1873.00 ± 86.52 pg/mL
  IL-6: 1423.00 ± 168.40 pg/mL

## COc1cc2c(c(OC)c1OC)-c1ccc(OC)c(=O)cc1[C@@H](NC(C)=O)CC2 [colchicine]
[2]; 6 h after model establishment (before dosing), 0.5 mg/kg i.g.
  joint swelling ratio: 16.15 ± 1.37
[2]; 12 h after model establishment, 0.5 mg/kg i.g.
  joint swelling ratio: 29.10 ± 3.17
[2]; 24 h after model establishment, 0.5 mg/kg i.g.
  joint swelling ratio: 23.28 ± 2.14

## C[C@]12C=CC(=O)C=C1CC[C@@H]1[C@@H]2[C@@H](O)C[C@@]2(C)[C@H]1CC[C@]2(O)C(=O)CO [prednisolone]
[2]; 6 h after model establishment (before dosing), 3.125 mg/kg i.g.
  joint swelling ratio: 15.78 ± 1.22
[2]; 12 h after model establishment, 3.125 mg/kg i.g.
  joint swelling ratio: 25.43 ± 2.03
[2]; 24 h after model establishment, 3.125 mg/kg i.g.
  joint swelling ratio: 18.48 ± 1.66
